# Experimental data taken from publication PMC9798004 (Frontiers in Psychiatry, 2022).
# Legend:
# Assay in all cases: PathHunter β-arrestin assay
# Type in all cases: cell-based
# PTGIR = molecular target: T1, PTGIR (Homo sapiens, UniProt P43119); conditions: screen, control agonist; CHO, 37C, 2HR
# T1 construct: purchased Eurofins DiscoverX (PathHunter gpcrMAX)
# P2RY1 = molecular target: T2, P2RY1 (Homo sapiens, UniProt P47900); conditions: screen, control agonist; U2OS, RT, 2HR
# T2 construct: purchased Eurofins DiscoverX (PathHunter gpcrMAX)
# P2RY12 = molecular target: T3, P2RY12 (Homo sapiens, UniProt Q9H244); conditions: screen, control agonist; CHO, RT, 2HR
# T3 construct: purchased Eurofins DiscoverX (PathHunter gpcrMAX)
# OXER1 = molecular target: T4, OXER1 (Homo sapiens, UniProt Q8TDS5); conditions: screen, control agonist; CHO, RT, 2HR
# T4 construct: purchased Eurofins DiscoverX (PathHunter gpcrMAX)
# P2RY11 = molecular target: T5, P2RY11 (Homo sapiens, UniProt Q96G91); conditions: screen, control agonist; CHO, 37C, 2HR
# T5 construct: purchased Eurofins DiscoverX (PathHunter gpcrMAX)
# TBXA2R = molecular target: T6, TBXA2R (Homo sapiens, UniProt P21731); conditions: screen, control agonist; U2OS, 37C, 2HR
# T6 construct: purchased Eurofins DiscoverX (PathHunter gpcrMAX)
# PTAFR = molecular target: T7, PTAFR (Homo sapiens, UniProt P25105); conditions: screen, control agonist; CHO, 37C, 2HR
# T7 construct: purchased Eurofins DiscoverX (PathHunter gpcrMAX)
# PTGER4 = PTGER4 (Homo sapiens, UniProt P35408); conditions: control agonist
# Protocol: (§1) Follow up experiments were prioritized based on the difference between S/N and CoV. Targets with a >5-fold difference between S/N and CoV were investigated for their potential contribution to the AMB-FUBINACA toxidrome with 10-point concentration-response curves generated in technical replicate (range 1.5–30 μM) using the EC80 of the relevant agonist, where applicable in antagonist mode. Simultaneous agonist and antagonist curves were run in parallel to ensure reliability of the assay (see Supplementary Table 2), with both RC50 and signal to background aligning with historical averages, and Z' >0.5. RC50 was estimated using a four-parameter fit (CBIS Data Analysis Suite, ChemInnovation, San Diego, CA) on normalized data.
# PTGER2 = molecular target: T8, PTGER2 (Homo sapiens, UniProt P43116); conditions: screen, control agonist; CHO, 37C, 2HR
# T8 construct: purchased Eurofins DiscoverX (PathHunter gpcrMAX)
# P2RY2 = molecular target: T9, P2RY2 (Homo sapiens, UniProt P41231); conditions: screen, control agonist; U2OS, 37C, 2HR
# T9 construct: purchased Eurofins DiscoverX (PathHunter gpcrMAX)
# P2RY6 = P2RY6 (Homo sapiens, UniProt Q15077); conditions: screen, control agonist; CHO, 37C, 2HR
# Protocol: as §1
# P2RY4 = molecular target: T10, P2RY4 (Homo sapiens, UniProt P51582); conditions: screen, control agonist; CHO, 37C, 2HR
# T10 construct: purchased Eurofins DiscoverX (PathHunter gpcrMAX)
# CALCR-RAMP3 = molecular target: T11, CALCR-RAMP3 (Homo sapiens, UniProt O60896+P30988); conditions: screen, control agonist; CHO, RT, 2HR
# T11 construct: purchased Eurofins DiscoverX (PathHunter gpcrMAX)
# T11 sequence (P30988 25-474): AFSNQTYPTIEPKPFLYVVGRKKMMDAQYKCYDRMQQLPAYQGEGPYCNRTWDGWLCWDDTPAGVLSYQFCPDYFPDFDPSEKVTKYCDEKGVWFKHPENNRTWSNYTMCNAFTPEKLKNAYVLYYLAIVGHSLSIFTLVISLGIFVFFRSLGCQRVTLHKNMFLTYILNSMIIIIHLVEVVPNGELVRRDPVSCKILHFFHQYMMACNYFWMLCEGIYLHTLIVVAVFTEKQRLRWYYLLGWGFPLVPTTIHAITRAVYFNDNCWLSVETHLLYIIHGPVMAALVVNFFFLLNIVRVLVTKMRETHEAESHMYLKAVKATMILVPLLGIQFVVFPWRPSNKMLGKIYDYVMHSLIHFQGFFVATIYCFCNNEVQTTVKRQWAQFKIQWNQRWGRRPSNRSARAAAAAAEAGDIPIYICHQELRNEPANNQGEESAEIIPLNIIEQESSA
# T11 sequence (O60896 24-148 partner): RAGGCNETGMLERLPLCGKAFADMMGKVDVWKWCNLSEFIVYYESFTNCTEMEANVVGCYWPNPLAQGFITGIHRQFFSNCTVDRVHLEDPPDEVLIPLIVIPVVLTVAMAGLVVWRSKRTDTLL
# CALCR = molecular target: T12, CALCR (Homo sapiens, UniProt P30988); conditions: screen, control agonist; U2OS, 37C, 2HR
# T12 construct: purchased Eurofins DiscoverX (PathHunter gpcrMAX)
# T12 sequence (P30988 25-474): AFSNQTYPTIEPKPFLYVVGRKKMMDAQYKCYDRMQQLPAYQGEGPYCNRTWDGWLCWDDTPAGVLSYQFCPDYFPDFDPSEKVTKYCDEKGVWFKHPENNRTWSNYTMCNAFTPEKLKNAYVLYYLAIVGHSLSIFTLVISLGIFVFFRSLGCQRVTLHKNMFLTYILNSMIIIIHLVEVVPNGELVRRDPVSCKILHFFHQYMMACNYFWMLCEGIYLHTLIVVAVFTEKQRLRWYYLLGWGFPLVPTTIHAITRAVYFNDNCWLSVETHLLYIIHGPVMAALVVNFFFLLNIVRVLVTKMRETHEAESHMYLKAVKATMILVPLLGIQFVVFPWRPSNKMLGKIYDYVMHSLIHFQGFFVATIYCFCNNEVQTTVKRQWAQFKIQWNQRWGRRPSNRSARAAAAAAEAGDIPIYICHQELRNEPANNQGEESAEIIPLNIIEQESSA
# CALCR-RAMP2 = CALCR-RAMP2 (Homo sapiens, UniProt O60895+P30988); conditions: control agonist
# [1] = follow-up concentration-response assays
# CALCR-RAMP2, sequence (O60895 43-175 partner, one chain of several): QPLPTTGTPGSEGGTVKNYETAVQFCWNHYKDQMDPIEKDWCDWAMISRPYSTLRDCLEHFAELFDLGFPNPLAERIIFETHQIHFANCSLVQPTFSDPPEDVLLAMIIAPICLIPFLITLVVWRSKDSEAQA
# PTGER4, sequence (P35408 whole entry): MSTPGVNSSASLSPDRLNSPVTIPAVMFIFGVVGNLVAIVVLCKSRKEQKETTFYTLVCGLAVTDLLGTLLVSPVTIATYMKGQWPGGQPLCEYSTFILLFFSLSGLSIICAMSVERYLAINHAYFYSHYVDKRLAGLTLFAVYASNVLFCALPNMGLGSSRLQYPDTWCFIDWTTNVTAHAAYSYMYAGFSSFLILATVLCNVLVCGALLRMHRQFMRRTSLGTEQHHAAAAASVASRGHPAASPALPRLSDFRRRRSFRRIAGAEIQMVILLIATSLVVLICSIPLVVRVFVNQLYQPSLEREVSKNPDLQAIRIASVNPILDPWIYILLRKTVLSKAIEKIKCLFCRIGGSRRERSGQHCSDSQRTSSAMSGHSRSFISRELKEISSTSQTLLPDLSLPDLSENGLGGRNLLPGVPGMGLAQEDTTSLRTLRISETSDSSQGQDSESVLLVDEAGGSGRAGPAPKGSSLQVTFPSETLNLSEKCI
# T5 sequence (Q96G91 whole entry, one chain of several): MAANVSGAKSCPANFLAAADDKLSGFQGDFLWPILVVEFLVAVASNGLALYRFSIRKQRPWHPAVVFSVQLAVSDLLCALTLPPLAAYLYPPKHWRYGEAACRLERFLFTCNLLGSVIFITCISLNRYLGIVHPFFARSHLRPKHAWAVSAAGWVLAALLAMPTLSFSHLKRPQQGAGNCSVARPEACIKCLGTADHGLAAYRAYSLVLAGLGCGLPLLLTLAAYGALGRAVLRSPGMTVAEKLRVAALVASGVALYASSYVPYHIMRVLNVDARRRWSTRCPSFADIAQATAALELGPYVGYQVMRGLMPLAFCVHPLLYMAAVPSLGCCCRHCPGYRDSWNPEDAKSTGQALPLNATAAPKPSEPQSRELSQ
# P2RY6, sequence (Q15077 whole entry): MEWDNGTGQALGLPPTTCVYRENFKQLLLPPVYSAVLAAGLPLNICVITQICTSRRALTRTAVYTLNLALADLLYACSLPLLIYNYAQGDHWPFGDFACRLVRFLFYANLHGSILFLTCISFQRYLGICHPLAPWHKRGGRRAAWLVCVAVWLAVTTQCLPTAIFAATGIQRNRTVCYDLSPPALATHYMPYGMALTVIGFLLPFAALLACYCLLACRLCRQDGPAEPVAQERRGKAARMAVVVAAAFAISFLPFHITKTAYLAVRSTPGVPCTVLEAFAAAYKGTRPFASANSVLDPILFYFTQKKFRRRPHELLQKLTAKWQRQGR
# T9 sequence (P41231 whole entry): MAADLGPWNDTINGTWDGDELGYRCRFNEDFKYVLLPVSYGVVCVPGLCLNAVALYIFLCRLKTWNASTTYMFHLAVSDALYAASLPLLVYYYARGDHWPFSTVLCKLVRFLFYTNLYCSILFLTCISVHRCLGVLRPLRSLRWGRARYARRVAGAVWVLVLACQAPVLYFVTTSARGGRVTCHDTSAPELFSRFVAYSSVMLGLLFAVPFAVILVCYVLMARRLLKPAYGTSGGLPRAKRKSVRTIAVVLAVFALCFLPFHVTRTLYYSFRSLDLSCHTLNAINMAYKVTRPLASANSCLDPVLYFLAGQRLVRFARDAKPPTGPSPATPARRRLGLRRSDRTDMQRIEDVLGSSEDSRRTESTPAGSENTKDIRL
# T10 sequence (P51582 whole entry): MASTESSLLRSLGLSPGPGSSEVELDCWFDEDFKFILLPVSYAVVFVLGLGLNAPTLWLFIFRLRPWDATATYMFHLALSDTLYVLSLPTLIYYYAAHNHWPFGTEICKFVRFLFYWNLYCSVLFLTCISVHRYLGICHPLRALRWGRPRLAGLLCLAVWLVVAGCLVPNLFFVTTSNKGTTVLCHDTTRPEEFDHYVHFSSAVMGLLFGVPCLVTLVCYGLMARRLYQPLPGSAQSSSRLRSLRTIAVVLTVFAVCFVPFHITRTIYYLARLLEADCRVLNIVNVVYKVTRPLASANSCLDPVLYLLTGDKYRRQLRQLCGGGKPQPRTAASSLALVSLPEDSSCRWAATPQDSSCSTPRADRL
# T1 sequence (P43119 whole entry): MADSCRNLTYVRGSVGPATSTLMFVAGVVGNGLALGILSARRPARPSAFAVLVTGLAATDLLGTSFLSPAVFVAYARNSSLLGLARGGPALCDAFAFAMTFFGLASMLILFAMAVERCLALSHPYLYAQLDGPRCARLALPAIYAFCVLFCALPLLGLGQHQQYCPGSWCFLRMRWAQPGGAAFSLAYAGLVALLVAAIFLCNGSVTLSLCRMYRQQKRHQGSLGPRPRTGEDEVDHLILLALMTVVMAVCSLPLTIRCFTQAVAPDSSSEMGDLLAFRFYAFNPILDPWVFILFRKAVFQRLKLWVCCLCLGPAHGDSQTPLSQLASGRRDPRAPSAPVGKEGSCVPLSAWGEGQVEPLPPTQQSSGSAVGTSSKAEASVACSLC
# T7 sequence (P25105 whole entry): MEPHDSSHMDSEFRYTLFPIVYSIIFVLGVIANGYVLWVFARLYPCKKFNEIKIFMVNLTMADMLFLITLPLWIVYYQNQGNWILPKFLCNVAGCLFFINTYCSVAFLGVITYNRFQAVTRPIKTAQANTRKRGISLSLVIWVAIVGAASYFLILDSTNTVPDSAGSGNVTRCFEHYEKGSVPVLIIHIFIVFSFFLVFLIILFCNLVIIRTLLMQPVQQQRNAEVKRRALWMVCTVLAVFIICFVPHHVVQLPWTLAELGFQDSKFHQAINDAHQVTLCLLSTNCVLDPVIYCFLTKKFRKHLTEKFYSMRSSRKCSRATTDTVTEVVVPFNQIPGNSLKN
# T4 sequence (Q8TDS5 whole entry): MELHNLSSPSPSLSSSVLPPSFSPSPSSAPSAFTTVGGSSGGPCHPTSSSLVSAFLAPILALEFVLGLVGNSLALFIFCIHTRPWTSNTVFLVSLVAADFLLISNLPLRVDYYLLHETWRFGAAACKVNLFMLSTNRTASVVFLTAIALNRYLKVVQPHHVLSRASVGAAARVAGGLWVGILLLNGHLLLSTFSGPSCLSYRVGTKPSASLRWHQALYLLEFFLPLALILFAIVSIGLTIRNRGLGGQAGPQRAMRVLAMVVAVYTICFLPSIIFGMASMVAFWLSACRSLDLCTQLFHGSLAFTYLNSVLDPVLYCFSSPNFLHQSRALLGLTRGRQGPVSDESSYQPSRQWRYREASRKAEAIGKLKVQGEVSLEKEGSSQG
# T8 sequence (P43116 whole entry): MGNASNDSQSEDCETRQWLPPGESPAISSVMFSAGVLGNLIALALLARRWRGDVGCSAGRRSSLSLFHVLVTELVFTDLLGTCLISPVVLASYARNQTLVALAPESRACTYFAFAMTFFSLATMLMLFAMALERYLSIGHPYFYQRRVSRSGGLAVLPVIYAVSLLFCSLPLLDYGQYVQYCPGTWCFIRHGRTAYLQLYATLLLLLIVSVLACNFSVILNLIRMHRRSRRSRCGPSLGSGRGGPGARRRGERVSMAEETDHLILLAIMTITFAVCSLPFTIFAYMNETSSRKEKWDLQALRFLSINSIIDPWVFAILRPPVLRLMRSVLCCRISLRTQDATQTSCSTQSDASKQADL
# T3 sequence (Q9H244 whole entry, one chain of several): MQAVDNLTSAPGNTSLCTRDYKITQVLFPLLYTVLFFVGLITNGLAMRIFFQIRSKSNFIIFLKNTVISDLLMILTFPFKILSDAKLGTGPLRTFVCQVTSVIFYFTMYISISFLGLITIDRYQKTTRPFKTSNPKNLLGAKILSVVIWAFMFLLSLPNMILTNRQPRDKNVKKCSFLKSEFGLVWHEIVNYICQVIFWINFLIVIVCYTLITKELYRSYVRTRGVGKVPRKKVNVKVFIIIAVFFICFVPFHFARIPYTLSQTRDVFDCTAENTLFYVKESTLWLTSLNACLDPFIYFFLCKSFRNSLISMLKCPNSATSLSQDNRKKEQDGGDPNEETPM
# T2 sequence (P47900 whole entry): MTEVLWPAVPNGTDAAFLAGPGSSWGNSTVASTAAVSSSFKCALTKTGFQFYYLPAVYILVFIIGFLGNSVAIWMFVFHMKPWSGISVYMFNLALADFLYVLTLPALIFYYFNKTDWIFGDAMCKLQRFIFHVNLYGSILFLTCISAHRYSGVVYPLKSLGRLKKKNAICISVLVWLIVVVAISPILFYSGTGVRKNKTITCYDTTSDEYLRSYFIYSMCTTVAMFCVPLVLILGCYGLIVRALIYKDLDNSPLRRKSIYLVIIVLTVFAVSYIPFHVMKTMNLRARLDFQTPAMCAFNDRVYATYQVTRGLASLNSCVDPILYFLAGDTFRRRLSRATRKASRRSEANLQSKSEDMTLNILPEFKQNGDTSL
# T6 sequence (P21731 whole entry): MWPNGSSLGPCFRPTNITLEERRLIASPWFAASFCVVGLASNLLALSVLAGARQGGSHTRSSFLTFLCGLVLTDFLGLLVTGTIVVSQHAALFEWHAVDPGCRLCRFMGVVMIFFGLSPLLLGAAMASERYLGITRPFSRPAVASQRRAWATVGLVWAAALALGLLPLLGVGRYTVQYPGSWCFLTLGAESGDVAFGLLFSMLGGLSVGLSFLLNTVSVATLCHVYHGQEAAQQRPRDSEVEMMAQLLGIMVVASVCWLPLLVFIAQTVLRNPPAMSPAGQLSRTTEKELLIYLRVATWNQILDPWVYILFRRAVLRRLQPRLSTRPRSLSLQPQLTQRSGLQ
compound,measurement,setting,value
CC#CCC(C)[C@H](O)/C=C/[C@@H]1[C@H]2c3cccc(CCCC(=O)O)c3O[C@H]2C[C@H]1O (mixture of isomers) [Beraprost],EC80,PTGIR,1.7 µM
CSc1nc(N)c2ncn([C@@H]3O[C@H](COP(=O)(O)OP(=O)(O)O)[C@@H](O)[C@H]3O)c2n1 [2-methylthio-ADP],EC80,P2RY1,0.0414 µM
same,EC80,P2RY12,0.00157 µM
CCCCC/C=C\C/C=C\C/C=C\C=C\C(=O)CCCC(=O)O [5-OxoETE],EC80,OXER1,2.13 µM
Nc1ncnc2c1ncn2[C@@H]1O[C@H](COP(=O)(O)OP(=O)(O)OP(=O)(O)O)[C@@H](O)[C@H]1O [ATP],EC80,P2RY11,1290 µM
O=C(O)CCC/C=C\C[C@@H]1[C@@H](/C=C/[C@@H](O)COc2ccc(I)cc2)[C@H]2CC[C@@H]1O2 [I-BOP],EC80,TBXA2R,0.0291 µM
CCCCCCCCCCCCCCCCOC[C@H](COP(=O)([O-])OCC[N+](C)(C)C)OC(C)=O [PAF],EC80,PTAFR,0.019 µM
CCCCC[C@H](O)/C=C/[C@H]1[C@H](O)CC(=O)[C@@H]1C/C=C\CCCC(=O)O [Prostaglandin E2],EC80,PTGER4; [1],0.00475 µM
same,EC80,"PTGER4; screen, HEK, 37C, 2HR",0.00358 µM
same,EC80,PTGER2,3.65 µM
O=c1ccn([C@@H]2O[C@H](COP(=O)(O)OP(=O)(O)OP(=O)(O)O)[C@@H](O)[C@H]2O)c(=O)[nH]1 [UTP],EC80,P2RY2,2.58 µM
same,EC80,P2RY6,0.225 µM
same,EC80,P2RY4,0.93 µM
Calcitonin,EC80,CALCR-RAMP3,1.15 µM
same,EC80,CALCR,0.0377 µM
same,EC80,CALCR-RAMP2; [1],0.035 µM
same,EC80,"CALCR-RAMP2; screen, CHO, 37C, 2HR",0.0305 µM
